Experiment [1] has as its target T1, E. coli glutamate/aspartate binding protein (YBEJ, SEQ ID NO:3) variant T129C, fluorophore conjugate (Escherichia coli, UniProt P37902, T129C).
T1 construct: The underlined methionine is the initiation codon for expression of YBEJ used in the study; initiation methionine (N); Gly-Ser-Gly-(His)n or Gly-Ser-(His)n (C); made in house; host or cells: E. coli BL21-DE3
Kind of experiment: Fluorimetric titration of fluorophore conjugates. The source says: (§1) Molecular Cloning. […] Amplified products were cloned into one of the protein expression vectors pAED4 (Doering, “Functional and structural studies of a small f-actin binding domain” in Ph.D. thesis, Massachusetts Institute of Technology, 1992); pKK223-3 (Brosius & Holy, Proc. Natl. Acad. Sci. USA 81:6929-6933, 1984); or pET vectors (Studier et al., Meth. Enzymol. 185:60-89, 1990) (Novagen). N-terminal oligonucleotide primers were designed to clone only the processed periplasmic form, deleting the signal sequence. The C-terminal primer was designed to append the sequence Gly-Ser-Gly-(His)n or Gly-Ser-(His)n, where n=5, 6, or 10. Two tandem stop codons (TAATGA) follow the last His codon. […] Single amino acid substitutions were generated by overlapping PCR mutagenesis (Ho et al., Gene 77:51-59, 1989). All clones and mutations were confirmed by nucleotide sequencing. In the case of arabinose BP, the single cysteine in the wild type sequence was replaced by alanine to eliminate the possibility of reporter group conjugation to this thiol (Miller et al., J. Biol. Chem. 254:7521-7528, 1979). Additionally the sequence of Fe(III) BP was mutated by substitution of Glu57 with Asp to raise the Kd to a concentration range conveniently measured using Fe(III) citrate.
(§2) Fluorophore conjugation to cysteine-substituted bPBPs. Thiol-reactive fluorophores obtained from Molecular Probes (Eugene, Oreg.) were 5-iodoacetamidofluorescein (fluorescein); N-(1-pyrene) iodoacetamide (pyrene); N,N′-dimethyl-N-(iodoacetyl)-N′-(7-nitrobenz-2-oxa-1,3-diazol-4-yl)ethylenediamide (NBD); N-((2-(iodoacetoxy)ethyl)-N-methyl)amino-7-nitrobenz-2-oxa-1,3-diazole (NBDE); and 6-acryloyl-2-dimethylaminonaphthalene (acrylodan). The styryl and naphthyl dyes JPW4039, JPW4042, and JPW4045 (FIG. 3) were synthesized at the University of Connecticut. All fluorophore conjugation steps were typically carried out at room temperature. To protein at a concentration of 100 μM was added tris-(2-carboxyethyl)phosphine HCl to a five-fold molar excess to reduce intermolecular disulfide bonds. A thiol-reactive fluorophore (20 to 25 mM in acetonitrile or dimethyl sulfoxide) was added in small aliquots to a five-fold molar excess over protein. Conjugation proceeded in the dark at room temperature for 4 hours, or overnight at 4° C. Separation of protein from unreacted fluorophore was achieved by exhaustive dialysis or by size-exclusion chromatography. The efficiency of reporter group attachment was assessed by determination of unreacted thiol with Ellman's reagent (Ellman, Arch. Biochem. Biophys. 74:443-450, 1958) or by measuring the ratio of fluorophore to protein from absorbance spectra of the purified conjugate.
(§3) Fluorimetry. All measurements were conducted with an SLM Aminco-Bowman series 2 fluorimeter, with sample stirring at 25° C. Fluorescence emission spectra were acquired with excitation and emission slit widths of 4 and 8 nm, respectively. Photomultiplier tube potential was maintained between 400 and 800 volts. Protein concentrations were in the range of 50 to 1000 nM. Fluorophore-specific excitation was at the following approximate wavelengths: tryptophan, 290 nm; acrylodan, 390 nm; fluorescein, 485 nm; pyrene, 340 nm; NBD and NBDE, 490 nm; JPW4039, 485 nm; JPW4042, 470 nm; JPW4045, 470 nm.
(§4) Corrections were made for dilution of the protein and for background signal from buffer. Binding curves were fit to binding isotherms using equation 3 or 4, as appropriate.
(§5) Analyte affinity measurements. […] The emission wavelength monitored was that of maximum difference in intensity between the ligand-free and bound states. For each conjugate, fluorescence intensiometric observations were fit to a hyperbolic binding isotherm for a two-state model (Marvin et al., Proc. Natl. Acad. Sci. USA 94:4366-4371, 1997): […]

Experiment [2] has as its target T2, E. coli glutamate/aspartate binding protein (YBEJ, SEQ ID NO:3) variant Q123C, fluorophore conjugate (Escherichia coli, UniProt P37902, Q123C).
T2 construct: The underlined methionine is the initiation codon for expression of YBEJ used in the study; initiation methionine (N); Gly-Ser-Gly-(His)n or Gly-Ser-(His)n (C); made in house; host or cells: E. coli BL21-DE3
Kind of experiment: Fluorimetric titration of fluorophore conjugates.
Source text: as §1, §2, §3, §4, §5

Experiment [3] has as its target E. coli glucose binding protein variant W183C, fluorophore conjugate (Escherichia coli, UniProt P0AEE5, W206C). Briefly: biochemical. The protocol:
The normal serum glucose range (euglycemia) of 4 to 6 mM is delimited by vertical lines.
as §1, §2, §3, §4
Analyte affinity measurements.

Experiment [4] is described as follows: Fluorescence emission spectra without and with saturating ligand (wavelength shift, ΔIstd, ΔRmax). More on the design: key to ΔIstd: intensity change at λstd normalized to average intensity; key to ΔRmax: ratio change of two emission band areas, unbound vs saturated. The note with it: unbound vs ligand-saturated; for ΔIstd: standard intensity change; for ΔRmax: standard ratiometric change. The protocol:
as §3
Assessment of fluorescent biosensor function. Fluorescence emission spectra of bPBP-fluorophore conjugates were recorded in the absence and presence of saturating ligand concentrations. Spectral changes were characterized by four parameters: wavelength shift (the difference between the wavelengths of emission maximum in the unbound and ligand-saturated states), direction of intensity change (increase or decrease in intensity at the wavelengths of maximum emission in the two states), standard intensity change (ΔIstd), and standard ratiometric change (ΔR). ΔIstd is defined as the normalized intensity change relative to the average intensity, determined at the wavelength mid-point between the two emission maxima:
[formula] where λstd=(λmax, unbound+λmax, saturated)/2 and I1, I2 are the fluorescence intensities at λstd of each spectrum respectively (FIG. 4A). ΔR is defined in terms of two emission bands, A1 ([λ1, λ2]) and A2 ([λ3, λ4]) (FIG. 4B):
[formula] where ^∘A1, […] the areas in the absence of ligand, and ^∞A1, ^∞A2 the areas in the presence of saturating ligand. A computer program was used to enumerate ΔR for all possible pairs of wavelength bands in the two spectra, to identify the optimal sensing condition, defined as the maximum value of ΔR. Adjustable parameters of the algorithm, and their values used for ΔRmax quantities reported here, are: step size (2 nm), step width (10 nm), minimum integration area limit (fraction of total: 0.1), and maximum integration area limit (fraction of total: 1).

Chain of E. coli glucose binding protein variant W183C, fluorophore conjugate (P0AEE5 24-332 W206C limits assumed): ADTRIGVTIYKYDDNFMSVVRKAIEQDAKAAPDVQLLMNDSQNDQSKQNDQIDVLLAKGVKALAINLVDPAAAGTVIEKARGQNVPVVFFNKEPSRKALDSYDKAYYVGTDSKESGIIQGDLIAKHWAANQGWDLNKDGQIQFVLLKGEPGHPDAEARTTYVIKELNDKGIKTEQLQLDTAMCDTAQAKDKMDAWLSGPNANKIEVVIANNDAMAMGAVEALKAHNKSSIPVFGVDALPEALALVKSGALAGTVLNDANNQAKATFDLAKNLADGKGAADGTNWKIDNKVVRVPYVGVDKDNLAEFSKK
T1 sequence (P37902 other isoform, or with tags, fused parts or gaps T129C): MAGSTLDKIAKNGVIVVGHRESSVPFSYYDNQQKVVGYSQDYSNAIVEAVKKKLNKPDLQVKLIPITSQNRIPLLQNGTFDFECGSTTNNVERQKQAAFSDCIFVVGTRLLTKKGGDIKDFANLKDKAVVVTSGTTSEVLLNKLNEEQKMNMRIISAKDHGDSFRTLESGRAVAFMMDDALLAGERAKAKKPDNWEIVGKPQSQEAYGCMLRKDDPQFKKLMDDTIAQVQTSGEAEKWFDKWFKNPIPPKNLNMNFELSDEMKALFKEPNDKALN
T2 sequence (P37902 other isoform, or with tags, fused parts or gaps Q123C): as the sequence (P37902 other isoform, or with tags, fused parts or gaps T129C) above, with Q96C, C102T counted along it

For `NC(=O)C[C@H](N)C(=O)O` [asparagine], the Kd in experiment [1] (T129C-NBD) is 0.0054 mM; in experiment [2], 0.096 mM.

`OC[C@H]1OC(O)[C@H](O)[C@@H](O)[C@@H]1O` (stereo partly shown) [glucose]: the Kd in experiment [3] (Kd, Acrylodan conjugate, endosteric site) is 5.98 mM; in experiment [3] (Kd, Fluorescein conjugate, endosteric site), 17.6 mM; in experiment [3] (appKd, W183C-acrylodan, ratiometric, F450-459/F486-495), roughly 10.4 mM; in experiment [3] (appKd, W183C-acrylodan, ratiometric, F450-459/F550-559), roughly 5 mM; in experiment [3] (appKd, W183C-acrylodan, ratiometric, F472-481/F450-459), roughly 17.4 mM; in experiment [3] (dissociation constant, W183C-acrylodan), 5.98 mM.

`NC(=O)CC[C@H](N)C(=O)O` [glutamine]: the Kd in experiment [1] (T129C-JPW4039) worked out at 0.023 mM; in experiment [1] (T129C-NBD), 0.0121 mM; in experiment [2], 0.049 mM.

In the case of sulfate BP L65C Acrylodan, in experiment [4], the ΔIstd is recorded as 0.39 and the ΔRmax stood at 2.95.

As for sulfate BP L65C Fluorescein, in experiment [4], the ΔIstd was determined as 0.39 and the ΔRmax worked out at 1.31.

Turning to sulfate BP L65C JPW4042, in experiment [4], the ΔIstd amounted to 0.40 and the ΔRmax was 1.82.

Regarding sulfate BP L65C NBD, in experiment [4], the ΔIstd is 0.02 and the ΔRmax amounted to 0.61.

Consider sulfate BP L65C Pyrene, for which, in experiment [4], the ΔIstd is 0.13 and the ΔRmax was 1.20.

Regarding sulfate BP Q294C Acrylodan, in experiment [4], the ΔIstd turned out to be 0.04 and the ΔRmax came out at 0.13.

On to sulfate BP Q294C Fluorescein, for which, in experiment [4], the ΔIstd is on record as 0.00 and the ΔRmax is 0.11.

With sulfate BP Q294C JPW4042, in experiment [4], the ΔIstd was found to be 0.27 and the ΔRmax amounted to 1.17.

sulfate BP Q294C NBD: in experiment [4], the ΔIstd turned out to be 0.00 and the ΔRmax is reported as 0.02.

For sulfate BP Q294C Pyrene, in experiment [4], the ΔIstd is reported as 0.01 and the ΔRmax turned out to be 0.08.

With sulfate BP R134C Acrylodan, in experiment [4], the ΔIstd stood at 0.18 and the ΔRmax turned out to be 2.26.

As for sulfate BP R134C Fluorescein, in experiment [4], the ΔIstd amounted to 0.01 and the ΔRmax came out at 0.02.

Turning to sulfate BP R134C JPW4039, in experiment [4], the ΔIstd is recorded as 0.08 and the ΔRmax is 2.02.

On to sulfate BP R134C JPW4042, for which, in experiment [4], the ΔIstd was found to be 0.52 and the ΔRmax stood at 0.96.

For sulfate BP R134C NBD, in experiment [4], the ΔIstd is 0.58 and the ΔRmax is 0.37.

As for sulfate BP R134C Pyrene, in experiment [4], the ΔIstd amounted to 0.15 and the ΔRmax amounted to 1.30.

As to sulfate BP W290C Acrylodan, in experiment [4], the ΔIstd is 0.04 and the ΔRmax is on record as 0.03.

As for sulfate BP W290C Fluorescein, in experiment [4], the ΔIstd is on record as 0.04 and the ΔRmax is recorded as 0.09.

With sulfate BP W290C JPW4042, in experiment [4], the ΔIstd was 0.43 and the ΔRmax is 0.89.

sulfate BP W290C NBD: in experiment [4], the ΔIstd worked out at 0.06 and the ΔRmax came out at 0.11.

Consider sulfate BP W290C Pyrene, for which, in experiment [4], the ΔIstd is recorded as 0.16 and the ΔRmax is recorded as 0.37.

On to sulfate BP Y67C Acrylodan, for which, in experiment [4], the ΔIstd was 0.00 and the ΔRmax was 0.12.

Take sulfate BP Y67C Fluorescein: in experiment [4], the ΔIstd turned out to be 0.01 and the ΔRmax is on record as 0.04.

On to sulfate BP Y67C NBD, for which, in experiment [4], the ΔIstd was 0.13 and the ΔRmax worked out at 0.20.

Turning to sulfate BP Y67C Pyrene, in experiment [4], the ΔIstd came to 0.02 and the ΔRmax is recorded as 0.48.
